A short description of series [1]: Stability in simulated gastric fluid. The format is in vitro ADME. The conditions noted are these: 37° C., pH 1.5, pepsin; for half-life at 2 μM: simulated gastric fluid with pepsin, read-out: half-life (t1/2) in simulated gastric fluid. In a few lines:
(§1)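 UV detection at 206 nm tracked the remaining material after HPLC separation at a flow of 1 mL/min in TFA/H2O. Incubations had been ended by adding aqueous TFA (10%, v/v), and eluted peaks were identified by ESI-MS.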

A short description of series [2]: Stability in simulated intestinal fluid. The format is in vitro ADME. The settings on record: 37° C.; for half-life at 2 μM: simulated intestinal fluid, pH 7.5, read-out: half-life (t1/2) in simulated intestinal fluid. In a few lines:
as §1

Series [3] relates to RIN5F (Rat Insulinoma) cells. Nature of the series: In vitro glucose-dependent insulin secretion (RIN5F cell assay). The format is cell-based. The settings on record: 16.7 mM glucose load, mean ± S.D., n = 3. On the procedure: After trypsinization, RIN5F cells were seeded at a concentration of 0.2×10^6·cells per well, in 12 well plates.
The supernatant was collected and the insulin amount was measured by ultra sensitive Rat insulin ELISA kit (Crystal Chem, Ill.). The protein was estimated in the supernatant using Bicinchoninic Acid kit, according to the manufacturer's protocol (Sigma Aldrich, Mo.). The total insulin content obtained in Pico-gram (pg) was divided with the total protein (μg) in order to normalize for differences in cell density between wells.

The next series deals with T1, human glucagon receptor (Homo sapiens, UniProt P47871).
T1 construct: The full-length cDNA was cloned in pcDNA3.1(Invitrogen); expressed in transfected cells
In words: In vitro human glucagon antagonist activity (inhibition of cAMP production), CHO/human glucagon R cells. The format is cell-based.

Series [4] is described as follows: Stability against liver microsomes. The format is in vitro ADME, human. The conditions noted are these: for % degradation in 24 h when incubated with liver microsomes: 2 μM, 37° C.; for half-life at 2 μM: human, human liver microsomes, pH 7.8, 37° C., read-out: half-life (t1/2) with liver microsomes. Put shortly: as §1
Series [5] is described as follows: Stability in human plasma. The conditions noted are these: for half-life (t1/2) in human plasma / % degradation in 24 h when incubated with human plasma: 2 μM, 37° C. The class given is in vitro ADME. Put shortly: as §1
A further series addresses DPP IV (Homo sapiens, UniProt P27487). In words: Stability against DPP IV enzyme. The format is in vitro ADME. The conditions noted are these: for % degradation in 24 h when incubated with DPP-IV enzyme: 2 μM, 37° C. Put shortly:
as §1

Where [6] appears, read: 1 nM test compound (fourth concentration column, between 100 nM and 10 μM) with saturated concentration of glucagon peptide.
Setting [7] is: 1 nM test compound with saturated concentration of glucagon peptide.
Where [8] appears, read: 10 nM test compound with saturated concentration of glucagon peptide.
[9] abbreviates: 100 nM test compound with saturated concentration of glucagon peptide.
Setting [10] is: 10 μM test compound with saturated concentration of glucagon peptide.

T1 sequence (P47871 26-477): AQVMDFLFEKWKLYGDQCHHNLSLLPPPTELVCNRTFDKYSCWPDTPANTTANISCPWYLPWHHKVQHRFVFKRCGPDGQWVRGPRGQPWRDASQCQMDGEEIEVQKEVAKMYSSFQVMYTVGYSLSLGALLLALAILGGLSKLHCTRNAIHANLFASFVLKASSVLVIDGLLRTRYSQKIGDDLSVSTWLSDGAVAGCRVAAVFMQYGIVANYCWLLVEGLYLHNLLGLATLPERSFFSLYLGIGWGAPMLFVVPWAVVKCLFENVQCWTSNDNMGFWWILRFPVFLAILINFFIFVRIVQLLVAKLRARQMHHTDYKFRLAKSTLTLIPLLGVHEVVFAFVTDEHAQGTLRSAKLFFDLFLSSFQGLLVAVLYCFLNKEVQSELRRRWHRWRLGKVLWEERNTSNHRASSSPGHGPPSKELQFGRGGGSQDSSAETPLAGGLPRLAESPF
Chain of DPP IV (P27487 whole entry, species assumed): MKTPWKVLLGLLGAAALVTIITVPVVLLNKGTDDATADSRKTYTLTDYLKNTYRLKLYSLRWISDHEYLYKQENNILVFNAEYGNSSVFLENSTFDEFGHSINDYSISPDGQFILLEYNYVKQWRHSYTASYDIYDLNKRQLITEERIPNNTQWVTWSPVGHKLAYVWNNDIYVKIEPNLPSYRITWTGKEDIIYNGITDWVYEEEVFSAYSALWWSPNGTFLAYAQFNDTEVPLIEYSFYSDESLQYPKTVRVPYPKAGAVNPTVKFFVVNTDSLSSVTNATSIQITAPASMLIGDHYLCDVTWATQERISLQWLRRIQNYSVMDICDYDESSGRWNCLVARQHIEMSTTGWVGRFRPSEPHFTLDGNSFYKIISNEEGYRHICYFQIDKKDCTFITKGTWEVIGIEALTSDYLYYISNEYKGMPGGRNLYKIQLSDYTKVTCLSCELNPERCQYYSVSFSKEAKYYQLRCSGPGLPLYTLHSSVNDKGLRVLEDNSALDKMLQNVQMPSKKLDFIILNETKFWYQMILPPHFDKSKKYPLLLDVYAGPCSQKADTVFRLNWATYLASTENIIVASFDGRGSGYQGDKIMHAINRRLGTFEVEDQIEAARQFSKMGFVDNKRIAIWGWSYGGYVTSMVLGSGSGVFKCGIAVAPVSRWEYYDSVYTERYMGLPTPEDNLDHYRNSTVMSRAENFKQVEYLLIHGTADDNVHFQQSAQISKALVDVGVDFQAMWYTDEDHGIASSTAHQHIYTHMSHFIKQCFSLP

For the molecule `CCc1cc(OC)ccc1-c1ccc(CC(NC(=O)[C@H](CC(=O)O)NC(=O)[C@H](CO)NC(=O)[C@@H](NC(=O)[C@H](Cc2ccccc2)NC(=O)[C@@H](NC(=O)CNC(=O)[C@H](CCC(N)=O)NC(=O)[C@H](C)NC(=O)[C@@H](N)Cc2c[nH]cn2)[C@@H](C)O)[C@@H](C)O)C(=O)NC(Cc2ccc(-c3ccccc3C)cc2)C(N)=O)cc1` (single isomer, unassigned) [compound 9], the “% degradation in 24 h when incubated with simulated gastric fluid” value (“% degradation … with simulated gastric fluid” for short) in series [1] (2 μM) is 100%. Moreover, the half-life at 2 μM in series [1], in series [2] and in series [4] was 30 min in each case. Moreover, in series [2] (2 μM, pH 7.5), the “% degradation in 24 h when incubated with simulated intestinal fluid” value (shortened to “% degradation … with simulated intestinal fluid”) is 100%. In addition, the Insulin secretion in series [3] (0.1 nM test compd.) came to 11.8 ± 0.50 pg/µg/h; in series [3] (1 nM test compd.), 14.9 ± 0.11 pg/µg/h; in series [3] (10 nM test compd.), 27.9 ± 0.31 pg/µg/h. In addition, the “Human Glucagon receptor antagonistic activity, inhibition of cAMP production of Glucagon peptide” value at human glucagon receptor (setting [6]) came out at 8 ± 0.02 pmol/ml/μg prt; on human glucagon receptor (setting [7]), 18 ± 0.07 pmol/ml/μg prt; at human glucagon receptor (setting [8]), 16 ± 0.01 pmol/ml/μg prt; at human glucagon receptor (setting [9]), 12 ± 0.03 pmol/ml/μg prt; on human glucagon receptor (setting [10]) it was 6 ± 0.08 pmol/ml/μg prt. The “% degradation in 24 h when incubated with liver microsomes” value (shortened to “% degradation … with liver microsomes”) in series [4] was 100%. Moreover, the “half-life (t1/2) in human plasma” value in series [5] is “(9) h”. Besides, in series [5], the “% degradation in 24 h when incubated with human plasma” value (“% degradation … with human plasma” for short) is 75%. Moreover, the “% degradation in 24 h when incubated with DPP-IV enzyme” value (“% degradation … with DPP-IV enzyme” below) on DPP IV worked out at 74%.
Regarding `CCc1cc(OC)ccc1-c1ccc(CC(NC(=O)[C@H](CC(=O)O)NC(=O)[C@H](CO)NC(=O)[C@@H](NC(=O)[C@H](Cc2ccccc2)NC(=O)[C@@H](NC(=O)CNC(=O)[C@H](CCC(N)=O)NC(=O)[C@H](CO)NC(=O)[C@@H](N)Cc2c[nH]cn2)[C@@H](C)O)[C@@H](C)O)C(=O)NC(Cc2ccc(-c3ccccc3C)cc2)C(N)=O)cc1` (single isomer, unassigned) [compound 5], the “% degradation … with simulated gastric fluid” value in series [1] (2 μM) is listed as 100%. Further, the half-life at 2 μM in series [1], in series [2] and in series [4] was 30 min each time. In addition, the “% degradation … with simulated intestinal fluid” value in series [2] (2 μM, pH 7.5) is given as 100%. For the same molecule, the results for the Insulin secretion in series [3] (0.1 nM test compd.), in series [3] (1 nM test compd.) and in series [3] (10 nM test compd.) were 12.1 ± 0.52 pg/µg/h, 14.1 ± 0.16 pg/µg/h and 28.0 ± 0.36 pg/µg/h, respectively. Moreover, the “Human Glucagon receptor antagonistic activity, inhibition of cAMP production of Glucagon peptide” value at human glucagon receptor (setting [6]) worked out at 14 ± 0.03 pmol/ml/μg prt; on human glucagon receptor (setting [7]) it was 20 ± 0.06 pmol/ml/μg prt; on human glucagon receptor (setting [8]), 18 ± 0.09 pmol/ml/μg prt; on human glucagon receptor (setting [9]), 16 ± 0.01 pmol/ml/μg prt; at human glucagon receptor (setting [10]), 12 ± 0.01 pmol/ml/μg prt. Moreover, the “% degradation … with liver microsomes” value in series [4] is 100%. The “half-life (t1/2) in human plasma” value in series [5] was “(9) h”. In addition, the “% degradation … with human plasma” value in series [5] was determined as 78%. For the same molecule, on DPP IV, the “% degradation … with DPP-IV enzyme” value came to 76%.
Turning to `CCc1cc(OC)ccc1-c1ccc(CC(NC(=O)[C@H](CC(=O)O)NC(=O)[C@H](CO)NC(=O)[C@@H](NC(=O)[C@H](Cc2ccccc2)NC(=O)[C@@H](NC(=O)CNC(=O)[C@H](CCC(N)=O)NC(=O)[C@H](CO)NC(=O)[C@@H](N)Cc2c[nH]cn2)[C@@H](C)O)[C@@H](C)O)C(=O)NC(Cc2ccc(-c3ccccc3F)cc2)C(N)=O)cc1` (single isomer, unassigned) [compound 7], the “% degradation … with simulated gastric fluid” value in series [1] (2 μM) is reported as 100%. Besides, the half-life at 2 μM in series [1], in series [2] and in series [4] was 30 min in each case. Besides, the “% degradation … with simulated intestinal fluid” value in series [2] (2 μM, pH 7.5) was 100%. Moreover, the Insulin secretion in series [3] (0.1 nM test compd.) was determined as 11.1 ± 0.12 pg/µg/h; in series [3] (1 nM test compd.), 13.1 ± 0.13 pg/µg/h; in series [3] (10 nM test compd.), 19.0 ± 0.16 pg/µg/h. The “Human Glucagon receptor antagonistic activity, inhibition of cAMP production of Glucagon peptide” value on human glucagon receptor (setting [6]) was determined as 0 pmol/ml/μg prt; at human glucagon receptor (setting [7]) it was 6 ± 0.02 pmol/ml/μg prt; at human glucagon receptor (setting [8]) it was 5 ± 0.03 pmol/ml/μg prt; on human glucagon receptor (setting [9]), 2 ± 0.61 pmol/ml/μg prt; on human glucagon receptor (setting [10]), 0 pmol/ml/μg prt. Also, in series [4], the “% degradation … with liver microsomes” value turned out to be 100%. Also, the “half-life (t1/2) in human plasma” value in series [5] is “(9) h”. Further, the “% degradation … with human plasma” value in series [5] turned out to be 80%. Besides, the “% degradation … with DPP-IV enzyme” value on DPP IV is reported as 77%.
In the case of `CCc1cc(OC)ccc1-c1ccc(CC(NC(=O)[C@H](CC(=O)O)NC(=O)[C@H](CO)NC(=O)[C@@H](NC(=O)C(C)(Cc2ccccc2F)NC(=O)[C@@H](NC(=O)CNC(=O)[C@H](CCC(N)=O)NC(=O)[C@H](C)NC(=O)[C@@H](N)Cc2c[nH]cn2)[C@@H](C)O)[C@@H](C)O)C(=O)NC(Cc2ccc(-c3ccccc3C)cc2)C(N)=O)cc1` (single isomer, unassigned) [compound 25], the “% degradation … with simulated gastric fluid” value in series [1] (2 μM) was 12%. The “half-life (t1/2) in simulated gastric fluid” value in series [1] (2 μM) is given as “(8) h”. Further, the “% degradation … with simulated intestinal fluid” value in series [2] (2 μM, pH 7.5) is 46%. Also, the “half-life (t1/2) in simulated intestinal fluid” value in series [2] (2 μM, pH 7.5) is reported as “(6) h”. Further, the Insulin secretion in series [3] (0.1 nM test compd.) came to 12.4 ± 0.22 pg/µg/h; in series [3] (1 nM test compd.), 15.2 ± 0.32 pg/µg/h; in series [3] (10 nM test compd.), 29.6 ± 0.50 pg/µg/h. In addition, the “Human Glucagon receptor antagonistic activity, inhibition of cAMP production of Glucagon peptide” value came to 8 ± 0.12 pmol/ml/μg prt at human glucagon receptor (setting [6]); 18 ± 0.12 pmol/ml/μg prt at human glucagon receptor (setting [7]); 16 ± 0.11 pmol/ml/μg prt at human glucagon receptor (setting [8]); 12 ± 0.13 pmol/ml/μg prt on human glucagon receptor (setting [9]); 6 ± 0.18 pmol/ml/μg prt on human glucagon receptor (setting [10]). Also, the “% degradation … with liver microsomes” value in series [4] turned out to be 83%. Further, the half-life at 2 μM in series [4] amounted to 60 min; in series [5] (human, pooled human plasma, pH 7.8, 37° C., read-out: half-life (t1/2) in human plasma) it was 480 min; at DPP IV (DPP IV enzyme, pH 7.8, 37° C., read-out: half-life (t1/2) with DPP-IV enzyme), 540 min. The “% degradation … with human plasma” value in series [5] was 75%. Also, the “% degradation … with DPP-IV enzyme” value at DPP IV worked out at 74%.
For `CCc1cc(OC)ccc1-c1ccc(CC(NC(=O)[C@H](CC(=O)O)NC(=O)[C@H](CO)NC(=O)[C@@H](NC(=O)[C@H](Cc2ccccc2)NC(=O)[C@@H](NC(=O)CNC(=O)[C@H](CCC(N)=O)NC(=O)[C@H](C)NC(=O)[C@@H](N)Cc2c[nH]cn2)[C@@H](C)O)[C@@H](C)O)C(=O)NC(Cc2ccc(-c3ccccc3C)nc2)C(N)=O)cc1` (single isomer, unassigned) [compound 10], the “% degradation … with simulated gastric fluid” value in series [1] (2 μM) was 100%. Moreover, the half-life at 2 μM in series [1], in series [2] and in series [4] was 30 min throughout. Also, the “% degradation … with simulated intestinal fluid” value in series [2] (2 μM, pH 7.5) is 100%. The Insulin secretion in series [3] (0.1 nM test compd.) was 12.7 ± 0.21 pg/µg/h; in series [3] (1 nM test compd.), 15.8 ± 0.33 pg/µg/h; in series [3] (10 nM test compd.), 29.3 ± 0.19 pg/µg/h. For the same molecule, the “Human Glucagon receptor antagonistic activity, inhibition of cAMP production of Glucagon peptide” value on human glucagon receptor (setting [6]) came to 4 ± 0.01 pmol/ml/μg prt; on human glucagon receptor (setting [7]), 15 ± 0.11 pmol/ml/μg prt; on human glucagon receptor (setting [8]) it was 12 ± 0.13 pmol/ml/μg prt; on human glucagon receptor (setting [9]) it was 8 ± 0.09 pmol/ml/μg prt; at human glucagon receptor (setting [10]) it was 2 ± 0.08 pmol/ml/μg prt. Further, the “% degradation … with liver microsomes” value in series [4] is reported as 100%. Besides, the “half-life (t1/2) in human plasma” value in series [5] is “(9) h”. Moreover, the “% degradation … with human plasma” value in series [5] was determined as 71%. The “% degradation … with DPP-IV enzyme” value at DPP IV amounted to 70%.

The values are drawn from patent publication US8841413B2, “Antidiabetic compounds” (Cadila Healthcare Limited, priority 2006, dated 2014).
